ChEMBL document CHEMBL2429758, “3-aroylmethylene-2,3,6,7-tetrahydro-1H-pyrazino[2,1-a]isoquinolin-4(11bH)-ones as potent Nrf2/ARE inducers in human cancer cells and AOM-DSS treated mice” (J Med Chem, 2013)
The source made the active and inactive calls. The calls are words filed in the database; no cut-off is given here.

Experiments:
[1] = molecular target: T1, Nuclear factor erythroid 2-related factor 2 (Homo sapiens) (UniProt Q16236); assay: Induction of Nrf2-mediated ARE activity in human HepG2-ARE-C8 cells at 80 uM after 12 hrs by luciferase reporter gene assay relative to control; type: cell-based
T1 sequence (whole entry): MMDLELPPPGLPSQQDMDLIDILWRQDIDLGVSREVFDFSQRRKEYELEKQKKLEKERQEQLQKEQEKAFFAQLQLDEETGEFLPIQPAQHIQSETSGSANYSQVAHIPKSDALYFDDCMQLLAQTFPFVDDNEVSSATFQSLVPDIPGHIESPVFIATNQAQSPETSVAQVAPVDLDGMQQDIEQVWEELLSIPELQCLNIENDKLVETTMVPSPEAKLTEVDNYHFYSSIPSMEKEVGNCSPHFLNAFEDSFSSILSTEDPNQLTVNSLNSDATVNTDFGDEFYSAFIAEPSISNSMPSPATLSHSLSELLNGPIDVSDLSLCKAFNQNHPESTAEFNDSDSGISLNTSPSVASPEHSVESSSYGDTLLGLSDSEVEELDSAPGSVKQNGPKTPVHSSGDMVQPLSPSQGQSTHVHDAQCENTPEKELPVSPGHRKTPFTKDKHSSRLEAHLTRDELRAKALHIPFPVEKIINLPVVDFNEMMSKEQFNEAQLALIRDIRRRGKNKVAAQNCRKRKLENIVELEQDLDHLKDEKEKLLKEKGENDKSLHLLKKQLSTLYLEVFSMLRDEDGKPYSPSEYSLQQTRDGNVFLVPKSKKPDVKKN

[2] = molecular target: T1, Nuclear factor erythroid 2-related factor 2 (Homo sapiens); assay: Induction of Nrf2-mediated ARE activity in human HepG2-ARE-C8 cells at 40 uM after 12 hrs by luciferase reporter gene assay relative to control; type: cell-based
[3] = molecular target: T1, Nuclear factor erythroid 2-related factor 2 (Homo sapiens); assay: Induction of Nrf2-mediated ARE activity in human HepG2-ARE-C8 cells at 20 uM after 12 hrs by luciferase reporter gene assay relative to control; type: cell-based
[4] = molecular target: T1, Nuclear factor erythroid 2-related factor 2 (Homo sapiens); assay: Induction of Nrf2-mediated ARE activity in human HepG2-ARE-C8 cells at 10 uM after 12 hrs by luciferase reporter gene assay relative to control; type: cell-based
[5] = molecular target: T1, Nuclear factor erythroid 2-related factor 2 (Homo sapiens); assay: Induction of Nrf2-mediated ARE activity in human HepG2-ARE-C8 cells at 5 uM after 12 hrs by luciferase reporter gene assay relative to control; type: cell-based
[6] = tested on: Mus musculus; assay: Toxicity in azoxymethane dextran sodium sulfate C57BL/6 mouse model assessed as sign of toxicity at 50 mg/kg/day treated with food measured after 130 days; type: organism-based; settings: in vivo, 3120 h
[7] = tested on: Mus musculus; assay: Toxicity in azoxymethane dextran sodium sulfate C57BL/6 mouse model assessed as change body weight at 50 mg/kg/day treated with food measured after 130 days; type: organism-based; settings: in vivo, 3120 h
[8] = tested on: Mus musculus; assay: Antiinflammatory activity in azoxymethane dextran sodium sulfate C57BL/6 mouse model assessed as reduction of IL-6 expression at 50 mg/kg/day treated with food measured after 130 days by immunohistochemical analysis; type: functional, organism-based
[9] = tested on: Mus musculus; assay: Antiinflammatory activity in azoxymethane dextran sodium sulfate C57BL/6 mouse model assessed as reduction of IL-1beta expression at 50 mg/kg/day treated with food measured after 130 days by immunohistochemical analysis; type: functional, organism-based
[10] = tested on: Mus musculus; assay: Chemopreventive activity in azoxymethane dextran sodium sulfate C57BL/6 mouse model assessed as reduction of developed dysplasia at 50 mg/kg/day treated with food measured after 130 days by hematoxylin and eosin staining; type: functional, organism-based
[11] = tested on: Mus musculus; assay: Chemopreventive activity in azoxymethane dextran sodium sulfate C57BL/6 mouse model assessed as increase of lymphocyte ratio at 50 mg/kg/day treated with food measured after 130 days (reference value: 87.75 +/- 2.16%); type: functional
[12] = tested on: Mus musculus; assay: Chemopreventive activity in azoxymethane dextran sodium sulfate C57BL/6 mouse model assessed as reduction of neutrophils ratio at 50 mg/kg/day treated with food measured after 130 days (reference value: 12.73 +/- 1.65%); type: functional; parameters: scale not given: the % may be the effect or the level left
[13] = tested on: Mus musculus; assay: Chemopreventive activity in azoxymethane dextran sodium sulfate C57BL/6 mouse model assessed as increase of WBC level at 50 mg/kg/day treated with food measured after 130 days (reference value: 5.33 +/- 1.34 10^9/L); type: functional
[14] = tested on: Mus musculus; assay: Chemopreventive activity in azoxymethane dextran sodium sulfate C57BL/6 mouse model assessed as reduction of length of colon at 50 mg/kg/day treated with food measured after 130 days (reference value: 5.62 +/- 0.69 centimeter); type: functional
[15] = tested on: Mus musculus; assay: Chemopreventive activity in azoxymethane dextran sodium sulfate C57BL/6 mouse model assessed as reduction of tumor burden at 50 mg/kg/day treated with food measured after 130 days; type: functional, organism-based
[16] = tested on: Mus musculus; assay: Chemopreventive activity in azoxymethane dextran sodium sulfate C57BL/6 mouse model assessed as reduction of average size of tumor at 50 mg/kg/day treated with food measured after 130 days; type: functional
[17] = tested on: Mus musculus; assay: Chemopreventive activity in azoxymethane dextran sodium sulfate C57BL/6 mouse model assessed as reduction of multiplicity of tumor at 50 mg/kg/day treated with food measured after 130 days; type: functional, organism-based
[18] = tested on: Mus musculus; assay: Chemopreventive activity in azoxymethane dextran sodium sulfate C57BL/6 mouse model assessed as reduction of tumor incidence at 50 mg/kg/day treated with food measured after 130 days; type: functional; parameters: scale not given: the % may be the effect or the level left
[19] = molecular target: T1, Nuclear factor erythroid 2-related factor 2 (Homo sapiens); assay: Induction of Nrf2 nuclear translocation in human HCT116 cells at 10 uM by Western blot analysis; type: cell-based; settings: HCT-116
[20] = tested on: HCT-116; assay: Induction of NQO1 expression in human HCT116 cells up to 24 hrs by Western blot analysis; type: functional, cell-based
[21] = tested on: HCT-116; assay: Induction of HO-1 expression in human HCT116 cells up to 8 hrs by Western blot analysis; type: functional, cell-based
[22] = tested on: HCT-116; assay: Induction of NQO1 expression in human HCT116 cells at 10 uM by Western blot analysis; type: functional, cell-based; settings: TDE = time-dependent effect
[23] = tested on: HCT-116; assay: Induction of HO-1 expression in human HCT116 cells at 10 uM by Western blot analysis; type: functional, cell-based; settings: TDE = time-dependent effect
[24] = molecular target: T1, Nuclear factor erythroid 2-related factor 2 (Homo sapiens); assay: Induction of Nrf2-mediated ARE activity in human HepG2-ARE-C8 cells after 12 hrs by luciferase reporter gene assay; type: cell-based
[25] = molecular target: T1, Nuclear factor erythroid 2-related factor 2 (Homo sapiens); assay: Induction of Nrf2-mediated ARE activity in human HepG2-ARE-C8 cells at 1 uM after 12 hrs by luciferase reporter gene assay relative to control; type: cell-based
[26] = molecular target: T1, Nuclear factor erythroid 2-related factor 2 (Homo sapiens); assay: Induction of Nrf2-mediated ARE activity in human HepG2-ARE-C8 cells at 0.1 uM after 12 hrs by luciferase reporter gene assay relative to control; type: cell-based
[27] = molecular target: T1, Nuclear factor erythroid 2-related factor 2 (Homo sapiens); assay: Induction of Nrf2-mediated ARE activity in human HepG2-ARE-C8 cells at 0.01 uM after 12 hrs by luciferase reporter gene assay relative to control; type: cell-based
[28] = tested on: Mus musculus; assay: Chemopreventive activity in azoxymethane dextran sodium sulfate C57BL/6 mouse model assessed as induction of Nrf2 nuclear translocation at 50 mg/kg/day treated with food measured after 130 days immunofluorescence analysis; type: functional, organism-based

| SMILES | fold change (FC) [4] | fold change (FC) [5] | fold change (FC) [25] | fold change (FC) [26] | fold change (FC) [27] | further results |
| --- | --- | --- | --- | --- | --- | --- |
| CC(C)(C)c1cc(O)ccc1O | 1.5 | 1.04 | – | – | – | fold change (FC) [1]: 5.21; fold change (FC) [2]: 3.24; fold change (FC) [3]: 2.06 |
| O=C(/C=C1\NCC2c3ccccc3CCN2C1=O)c1ccccc1 (centres undefined) | 26.9 | 18.9 | 9.51 | 5.44 | 2 | Activity [6]: Non-toxic; Activity [7]: Non-toxic; inhibition [8]: Active; inhibition [9]: Active; Activity [10]: Active; Activity [11]: 88.15%; Activity [12]: 12.39%; Activity [13]: 5.67 ×10⁹ /L; Activity [14]: 4.59 cm; Activity [15]: Active; Activity [16]: 2.2 mm; Activity [17]: Active; Activity [18]: 50%; Activity [19]: Active; Activity [20]: Dose-dependent effect; Activity [21]: Dose-dependent effect; Activity [22]: tde; Activity [23]: tde; Activity [24]: Dose-dependent effect; Activity [28]: Active |
| O=C(/C=C1\NCC2c3ccccc3CCN2C1=O)c1ccc(F)cc1 (centres undefined) | 14 | 12.3 | 8 | 4.39 | 2.58 | – |
| COc1ccc2c(c1)C1CN/C(=C\C(=O)c3ccc(F)cc3)C(=O)N1CC2 (centres undefined) | 2.48 | 1.82 | 1.74 | 1.35 | 1.29 | – |
| COc1cc2c(cc1OC)C1CN/C(=C\C(=O)c3cccc(F)c3)C(=O)N1CC2 (centres undefined) | 1.09 | 1.68 | 1.05 | 0.93 | 2.31 | – |
| O=C(/C=C1\NCC2c3ccccc3CCN2C1=O)c1cccc([N+](=O)[O-])c1 (centres undefined) | 18.5 | 14.5 | 7.22 | 3.52 | 3.28 | – |
| COc1cc2c(cc1OC)C1CN/C(=C\C(=O)c3ccccc3F)C(=O)N1CC2 (centres undefined) | 1.1 | 0.97 | 0.95 | 0.8 | 1.07 | – |
| C[S+]([O-])CCCCN=C=S (centres undefined) | 8.35 | 5.52 | 2.7 | – | – | fold change (FC) [3]: 18.1 |
| COc1cccc(C(=O)/C=C2\NCC3c4cc(OC)c(OC)cc4CCN3C2=O)c1 (centres undefined) | 1.06 | 1.11 | 0.95 | 1.18 | 1.45 | – |
| O=C(/C=C1\NCC2c3ccccc3CCN2C1=O)c1ccc(Cl)cc1Cl (centres undefined) | 2.49 | 1.78 | 1.42 | 1.1 | 1.68 | – |
| COc1ccc2c(c1)CCN1C(=O)/C(=C/C(=O)c3ccccc3F)NCC21 (centres undefined) | 7.7 | 5.18 | 3.73 | 1.45 | 2.58 | – |
| COc1ccc2c(c1)C1CN/C(=C\C(=O)c3cccc(F)c3)C(=O)N1CC2 (centres undefined) | 20.4 | 16.9 | 7.23 | 3.93 | 1.31 | – |
